Tested on: MCF7 complex spheroid growth, % test/control
Experiment: Anticancer human tumor MCF7 cell line growth inhibition [Asc];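 note: spheroids exposed to compounds for 7 days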;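 for viability, T/C: 100% = DMSO vehicle control wells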
Conditions: for IC50: curve of first compound; for viability, T/C: stronger effect = lower value
How it was run: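 Complex spheroids combining tumor cells with HUVEC endothelial cells and human MSCs, at 37 degrees C, 5% CO2; agents tested alone or combined, half-log dilutions from at or near clinical Cmax, or 10 microM if Cmax unknown.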

[1] = second compound 0.0316 µM, first compound 0.00316 µM
[2] = second compound 0.0316 µM, first compound 0.01 µM
[3] = second compound 0.0316 µM, first compound 0.0316 µM
[4] = second compound 0.0316 µM, first compound 0.1 µM
[5] = second compound 0.0316 µM, first compound 0.316 µM
[6] = second compound 0.0316 µM, first compound 1 µM
[7] = second compound 0.1 µM, first compound 0.00316 µM
[8] = second compound 0.1 µM, first compound 0.01 µM
[9] = second compound 0.1 µM, first compound 0.0316 µM
[10] = second compound 0.1 µM, first compound 0.1 µM
[11] = second compound 0.1 µM, first compound 0.316 µM
[12] = second compound 0.1 µM, first compound 1 µM
[13] = second compound 0.316 µM, first compound 0.00316 µM
[14] = second compound 0.316 µM, first compound 0.01 µM
[15] = second compound 0.316 µM, first compound 0.0316 µM
[16] = second compound 0.316 µM, first compound 0.1 µM
[17] = second compound 0.316 µM, first compound 0.316 µM
[18] = second compound 0.316 µM, first compound 1 µM
[19] = second compound 1 µM, first compound 0.00316 µM
[20] = second compound 1 µM, first compound 0.01 µM
[21] = second compound 1 µM, first compound 0.0316 µM
[22] = second compound 1 µM, first compound 0.1 µM
[23] = second compound 1 µM, first compound 0.316 µM
[24] = second compound 1 µM, first compound 1 µM
[25] = second compound 3.16 µM, first compound 0.00316 µM
[26] = second compound 3.16 µM, first compound 0.01 µM
[27] = second compound 3.16 µM, first compound 0.0316 µM
[28] = second compound 3.16 µM, first compound 0.1 µM
[29] = second compound 3.16 µM, first compound 0.316 µM
[30] = second compound 3.16 µM, first compound 1 µM
[31] = second compound 10 µM, first compound 0.00316 µM
[32] = second compound 10 µM, first compound 0.01 µM
[33] = second compound 10 µM, first compound 0.0316 µM
[34] = second compound 10 µM, first compound 0.1 µM
[35] = second compound 10 µM, first compound 0.316 µM
[36] = second compound 10 µM, first compound 1 µM

CCN1CCN(Cc2ccc(Nc3ncc(F)c(-c4cc(F)c5nc(C)n(C(C)C)c5c4)n3)nc2)CC1 + Cc1c(S(C)(=O)=O)c(-c2cc(F)cc(N3CCN(c4ccc(NS(=O)(=O)c5ccc(NC(CCN6CCC(C(=O)OCCCP(=O)(O)O)CC6)CSc6ccccc6)c(S(=O)(=O)C(F)(F)F)c5)cc4)CC3)c2)c(-c2ccc(Cl)cc2)n1C(C)C
IC50 (second compound 0.0316 µM): > 1000 nM | IC50 (second compound 0.1 µM): > 1000 nM | IC50 (second compound 0.316 µM): > 1000 nM | IC50 (second compound 1 µM): > 1000 nM | IC50 (second compound 3.16 µM): > 1000 nM | IC50 (second compound 10 µM): > 1000 nM | viability, T/C [1]: 101% | viability, T/C [2]: 96.7% | viability, T/C [3]: 106% | viability, T/C [4]: 95.6% | viability, T/C [5]: 91.4% | viability, T/C [6]: 72.8% | viability, T/C [7]: 92.8% | viability, T/C [8]: 86% | viability, T/C [9]: 86.3% | viability, T/C [10]: 85.2% | viability, T/C [11]: 101% | viability, T/C [12]: 87.3% | viability, T/C [13]: 100% | viability, T/C [14]: 94.2% | viability, T/C [15]: 98.8% | viability, T/C [16]: 95% | viability, T/C [17]: 94.6% | viability, T/C [18]: 69.1% | viability, T/C [19]: 91.6% | viability, T/C [20]: 98.9% | viability, T/C [21]: 79.5% | viability, T/C [22]: 88.4% | viability, T/C [23]: 103% | viability, T/C [24]: 69.2% | viability, T/C [25]: 90.2% | viability, T/C [26]: 85.7% | viability, T/C [27]: 92.8% | viability, T/C [28]: 88.5% | viability, T/C [29]: 92.1% | viability, T/C [30]: 73.1% | viability, T/C [31]: 136% | viability, T/C [32]: 124% | viability, T/C [33]: 182% | viability, T/C [34]: 134% | viability, T/C [35]: 114% | viability, T/C [36]: 61.6%

Cn1ncnc1[C@H]1c2n[nH]c(=O)c3cc(F)cc(c23)N[C@@H]1c1ccc(F)cc1 + Cc1c(S(C)(=O)=O)c(-c2cc(F)cc(N3CCN(c4ccc(NS(=O)(=O)c5ccc(NC(CCN6CCC(C(=O)OCCCP(=O)(O)O)CC6)CSc6ccccc6)c(S(=O)(=O)C(F)(F)F)c5)cc4)CC3)c2)c(-c2ccc(Cl)cc2)n1C(C)C
IC50 (second compound 0.0316 µM): 20.6 nM | IC50 (second compound 0.1 µM): 44.3 nM | IC50 (second compound 0.316 µM): 32.1 nM | IC50 (second compound 1 µM): 22.5 nM | IC50 (second compound 3.16 µM): 39.4 nM | IC50 (second compound 10 µM): 17.2 nM | viability, T/C (second compound 0.0316 µM, first compound 0.000316 µM): 116% | viability, T/C (second compound 0.0316 µM, first compound 0.001 µM): 113% | viability, T/C [1]: 74.6% | viability, T/C [2]: 59.4% | viability, T/C [3]: 50.7% | viability, T/C [4]: 39.7% | viability, T/C (second compound 0.1 µM, first compound 0.000316 µM): 100% | viability, T/C (second compound 0.1 µM, first compound 0.001 µM): 89.8% | viability, T/C [7]: 78.9% | viability, T/C [8]: 57.7% | viability, T/C [9]: 50.5% | viability, T/C [10]: 49% | viability, T/C (second compound 0.316 µM, first compound 0.000316 µM): 103% | viability, T/C (second compound 0.316 µM, first compound 0.001 µM): 75% | viability, T/C [13]: 80.9% | viability, T/C [14]: 54.2% | viability, T/C [15]: 50.9% | viability, T/C [16]: 42.9% | viability, T/C (second compound 1 µM, first compound 0.000316 µM): 106% | viability, T/C (second compound 1 µM, first compound 0.001 µM): 81.7% | viability, T/C [19]: 95.7% | viability, T/C [20]: 66.7% | viability, T/C [21]: 44.8% | viability, T/C [22]: 39.3% | viability, T/C (second compound 3.16 µM, first compound 0.000316 µM): 110% | viability, T/C (second compound 3.16 µM, first compound 0.001 µM): 86.8% | viability, T/C [25]: 89.4% | viability, T/C [26]: 57.3% | viability, T/C [27]: 50.6% | viability, T/C [28]: 46.5% | viability, T/C (second compound 10 µM, first compound 0.000316 µM): 85.3% | viability, T/C (second compound 10 µM, first compound 0.001 µM): 83.6% | viability, T/C [31]: 74.6% | viability, T/C [32]: 51.7% | viability, T/C [33]: 49.9% | viability, T/C [34]: 36.7%

O=C(c1cc(Cc2n[nH]c(=O)c3ccccc23)ccc1F)N1CCN(C(=O)C2CC2)CC1 + Cc1c(S(C)(=O)=O)c(-c2cc(F)cc(N3CCN(c4ccc(NS(=O)(=O)c5ccc(NC(CCN6CCC(C(=O)OCCCP(=O)(O)O)CC6)CSc6ccccc6)c(S(=O)(=O)C(F)(F)F)c5)cc4)CC3)c2)c(-c2ccc(Cl)cc2)n1C(C)C
IC50 (second compound 0.0316 µM): > 10000 nM | IC50 (second compound 0.1 µM): > 10000 nM | IC50 (second compound 0.316 µM): > 10000 nM | IC50 (second compound 1 µM): 8020 nM | IC50 (second compound 3.16 µM): 7130 nM | IC50 (second compound 10 µM): 8470 nM | viability, T/C [3]: 95.8% | viability, T/C [4]: 99.9% | viability, T/C [5]: 118% | viability, T/C [6]: 95.9% | viability, T/C (second compound 0.0316 µM, first compound 3.16 µM): 80.5% | viability, T/C (second compound 0.0316 µM, first compound 10 µM): 54.3% | viability, T/C [9]: 117% | viability, T/C [10]: 99.8% | viability, T/C [11]: 87% | viability, T/C [12]: 99.4% | viability, T/C (second compound 0.1 µM, first compound 3.16 µM): 84.5% | viability, T/C (second compound 0.1 µM, first compound 10 µM): 57.6% | viability, T/C [15]: 117% | viability, T/C [16]: 109% | viability, T/C [17]: 101% | viability, T/C [18]: 93.7% | viability, T/C (second compound 0.316 µM, first compound 3.16 µM): 72.8% | viability, T/C (second compound 0.316 µM, first compound 10 µM): 52.5% | viability, T/C [21]: 119% | viability, T/C [22]: 107% | viability, T/C [23]: 91.9% | viability, T/C [24]: 105% | viability, T/C (second compound 1 µM, first compound 3.16 µM): 88.9% | viability, T/C (second compound 1 µM, first compound 10 µM): 40.4% | viability, T/C [27]: 108% | viability, T/C [28]: 72.5% | viability, T/C [29]: 79.1% | viability, T/C [30]: 93.6% | viability, T/C (second compound 3.16 µM, first compound 3.16 µM): 68.2% | viability, T/C (second compound 3.16 µM, first compound 10 µM): 42.4% | viability, T/C [33]: 82.6% | viability, T/C [34]: 84.4% | viability, T/C [35]: 74.6% | viability, T/C [36]: 86.9% | viability, T/C (second compound 10 µM, first compound 3.16 µM): 76.3% | viability, T/C (second compound 10 µM, first compound 10 µM): 45.4%

O=C(c1ccc(F)c(F)c1Nc1ccc(I)cc1F)N1CC(O)([C@@H]2CCCCN2)C1 + Cc1c(S(C)(=O)=O)c(-c2cc(F)cc(N3CCN(c4ccc(NS(=O)(=O)c5ccc(NC(CCN6CCC(C(=O)OCCCP(=O)(O)O)CC6)CSc6ccccc6)c(S(=O)(=O)C(F)(F)F)c5)cc4)CC3)c2)c(-c2ccc(Cl)cc2)n1C(C)C
IC50 (second compound 0.0316 µM): > 1000 nM | IC50 (second compound 0.1 µM): > 1000 nM | IC50 (second compound 0.316 µM): > 1000 nM | IC50 (second compound 1 µM): > 1000 nM | IC50 (second compound 3.16 µM): > 1000 nM | IC50 (second compound 10 µM): > 1000 nM | viability, T/C [1]: 101% | viability, T/C [2]: 97.2% | viability, T/C [3]: 88.6% | viability, T/C [4]: 83.2% | viability, T/C [5]: 95.2% | viability, T/C [6]: 112% | viability, T/C [7]: 101% | viability, T/C [8]: 89.7% | viability, T/C [9]: 93.6% | viability, T/C [10]: 88.8% | viability, T/C [11]: 94.8% | viability, T/C [12]: 90% | viability, T/C [13]: 90.7% | viability, T/C [14]: 88.2% | viability, T/C [15]: 81% | viability, T/C [16]: 93.1% | viability, T/C [17]: 96.4% | viability, T/C [18]: 84.2% | viability, T/C [19]: 84.8% | viability, T/C [20]: 78% | viability, T/C [21]: 82.9% | viability, T/C [22]: 94.5% | viability, T/C [23]: 109% | viability, T/C [24]: 74.3% | viability, T/C [25]: 80.9% | viability, T/C [26]: 86.5% | viability, T/C [27]: 80.1% | viability, T/C [28]: 98.5% | viability, T/C [29]: 82.6% | viability, T/C [30]: 81.8% | viability, T/C [31]: 159% | viability, T/C [32]: 164% | viability, T/C [33]: 204% | viability, T/C [34]: 182% | viability, T/C [35]: 114% | viability, T/C [36]: 90.8%

— PubChem BioAssay AID1963445 (Molecular Pharmacology Branch, DTP, NCI, 2024)
